This is an account of results in US20070059242A1, “METHODS TO IDENTIFY THERAPEUTIC AGENTS” (priority 2005, published 2007).

As a reminder, the IC50 is the concentration at which inhibition is half-maximal.

The test system of data set [1] is Human aortic endothelial cells (HAEC). Nature of the data set: LDH release cytotoxicity assay, HAEC. The format is cell-based. The settings on record: Endothelial cell, 18 h. Here is the method: (§1) Cytotoxicity assays. WI-L2 human B-lymphocyte line, HAAE-1 human abdominal aortic endothelial line, MH-S murine alveolar macrophage line, and J774A.1 murine tissue macrophage line were obtained from the ATCC. Human aortic endothelial cells (HAEC) and human vascular smooth muscle cells (VSMS) were obtained from Cambrex Bio Science. Jurkat E6-1T-lymphocytes were kindly provided by Dr. J. Kaye (The Scripps Research Institute). Cells were cultured in ATCC-recommended media with 10% fetal calf serum. Cells were incubated in a controlled atmosphere at 37° C., with 5 or 7% CO2. For lactate dehydrogenase (LDH) release assays, adherent cells were harvested either by addition of 0.05% trypsin/EDTA or by scraping. The cells obtained were seeded onto 96-well microtiter plates (25,000 cells/well) and allowed to recover for 24-48 h. […] Cytotoxicity was then determined by measuring lactate dehydrogenase (LDH) release from cells in culture. […] 100% Cytotoxicity was defined as the maximum amount of LDH released by dead cells as shown by trypan blue exclusion, or the highest amount of LDH detected upon lysis of cells by 0.9% Triton X-100. The IC50 values were determined by comparison of the raw duplicate data for concentration versus cytotoxicity (%) to non-linear regression analysis (Hill plot) using Graphpad v3.0 software for Macintosh. […]
(LDH in the medium is a marker of cell lysis.)

In data set [2] the test system is J774.1 macrophages. In words: Lipid-loading assay (foam cell formation). It counts as cell-based, murine. The conditions noted are these: J774.1, 72 h, LDL 100 μg/mL with or without compound 20 μM. Here is the method:
Lipid-loading assay (foam cell formation). J774.1 macrophages were incubated in ATCC-recommended media containing 10% fetal bovine serum under a controlled atmosphere of 5 or 7% CO2 at 37° C., in 8-well chamber slides. […] At termination, cells were washed twice with PBS (pH 7.4). The cells were then fixed with 6% (v/v) paraformaldehyde in PBS for 30 minutes, rinsed with propylene glycol for 2 minutes and lipids were stained with 5 mg/ml Oil Red 0 for 8 minutes. The cells were counterstained with Harris' hematoxylin for 45 seconds, and background staining was removed with 6% paraformaldehyde followed by washing once in PBS and once in tap water. Cover slips were mounted onto the glass slides using glycerol and the slide preparations were examined by light microscopy. The number of lipid-laden cells was scored out of a total of at least 100 cells counted in a single field in each slide, and expressed as a percentage of total cells. Photographs were taken at 100× magnification.

In data set [3] the target is LDL / apoB-100 (Homo sapiens, UniProt P04114). Nature of the data set: Circular dichroism of LDL secondary structure. The settings on record: LDL 100 μg/ml with compound 10 μM, PBS pH 7.4, 37° C.
Protocol: Circular dichroism. […] Spectra were recorded in the peptidic range (200-260 nm). To increase the signal-to-noise ratio, multiple spectra (three) were averaged for each measurement.
The test system of data set [4] is J774A.1 macrophages. Nature of the data set: Uptake and localization in macrophages by fluorescence microscopy. The conditions noted are these: 50 μM dansyl derivative, 5 min to 1 h; not complexed with LDL. The format is cell-based, murine. Here is the method: J774A.1 cells were plated in 8-well chambered slides (Nalge Nunc International). Cells were gently washed twice with PBS, pH 7.4 before 5 min or 1 h exposure to 50 μM dansyl derivative of cholesterol ozonation product 5d or 5e, dansyl cholesterol derivative 9c or 9d, or dansyl hydrazine diluted in media without FCS (0.05% v/v final DMSO concentration). [drawing 28] Media was removed by aspiration and cells were fixed immediately in 95% ice cold methanol for 5 min. Cells were mounted in glycerol containing Antifade reagent (Molecular Probes). Fluorescence images were documented using DeltaVision Deconvolution microscope (API, Issaquah WA) equipped with a Photometrics CH350L liquid cooled CCD camera attached to an Olympus IX—70 inverted microscope. […] All images were deconvolved using constrained iterative algorithms (10 iterations) of DeltaVision software (softWoRx, v2.5). The deconvolved images were subsequently processed using softWoRx, v2.5.
In some experiments, murine macrophage RAW 264.7 (ECACC 91062702) cells were grown in RPMI (Gibco) with 10% FCS at 37° C. with 5% CO2. For fluorescence imaging, cells were incubated on cover slips in 6-well chambered plates (Costar) for 12 h, gently washed 3 times in PBS at pH 7.4, and incubated with 50 μM dansyl derivative of cholesterol ozonation product 5d or 5e, dansyl cholesterol derivative 9c or 9d, in RPMI with 10% FCS for 5, 15, 30, and 60 min. A solution of the dansyl derivative was then added in DMSO [final DMSO, 0.05% (v/v)]. Media was removed by aspiration, and cells were washed twice with PBS, followed by fixing in paraformaldehyde (3.7% in PBS) for 10 min. Cover slips were mounted in MOWIOL 4-88 (Calbiochem). Microscopy was performed using an inverted Zeiss Axioscope 2 Plus fluorescence microscope, and images were obtained with a Zeiss Axiocam digital camera using Axiovision software (version 3.1). The data were collected using a 63× oil immersion lens and DAPI filter (excitation 360/emission 460), and images were processed with Axiovision software and Adobe software (Photoshop 6.0).

Data set [5] relates to U-937 monocytes on endothelial cell monolayers. In words: Monocyte-endothelial cell-cell adhesion by fluorescence spectroscopy. It counts as cell-based. The settings on record: alone or in complex with LDL.
A short description of data set [6]: Aldolization of 4a with atherosclerotic artery and blood fractions (1H NMR). The format is in vitro ADME, human. As for the experimental part:
Aldolization of secoketoaldehyde 4a with atherosclerotic artery and blood fractions. […] To this solution was added either a) atherosclerotic artery (2.1 mg) that had been homogenized in PBS (1 ml) in a tissue homogenizer and then lyophilized to dryness, b) lyophilized human blood (1 ml), c) lyophilized human plasma (1 ml) or d) PBS lyophilized (1 ml). At time points samples were removed and analyzed by ^1H NMR vide supra.

The test system of data set [7] is T-lymphocyte cell line (Jurkat E6.1). Nature of the data set: LDH release cytotoxicity assay, Jurkat. It counts as cell-based. The conditions noted are these: Homo sapiens; Jurkat E6.1; LDH release, 0-100 μM, 18 h. Here is the method: as §1

Where two headings read alike, the source gives them in different places.

Sequence of LDL / apoB-100 (P04114 28-4563, species assumed): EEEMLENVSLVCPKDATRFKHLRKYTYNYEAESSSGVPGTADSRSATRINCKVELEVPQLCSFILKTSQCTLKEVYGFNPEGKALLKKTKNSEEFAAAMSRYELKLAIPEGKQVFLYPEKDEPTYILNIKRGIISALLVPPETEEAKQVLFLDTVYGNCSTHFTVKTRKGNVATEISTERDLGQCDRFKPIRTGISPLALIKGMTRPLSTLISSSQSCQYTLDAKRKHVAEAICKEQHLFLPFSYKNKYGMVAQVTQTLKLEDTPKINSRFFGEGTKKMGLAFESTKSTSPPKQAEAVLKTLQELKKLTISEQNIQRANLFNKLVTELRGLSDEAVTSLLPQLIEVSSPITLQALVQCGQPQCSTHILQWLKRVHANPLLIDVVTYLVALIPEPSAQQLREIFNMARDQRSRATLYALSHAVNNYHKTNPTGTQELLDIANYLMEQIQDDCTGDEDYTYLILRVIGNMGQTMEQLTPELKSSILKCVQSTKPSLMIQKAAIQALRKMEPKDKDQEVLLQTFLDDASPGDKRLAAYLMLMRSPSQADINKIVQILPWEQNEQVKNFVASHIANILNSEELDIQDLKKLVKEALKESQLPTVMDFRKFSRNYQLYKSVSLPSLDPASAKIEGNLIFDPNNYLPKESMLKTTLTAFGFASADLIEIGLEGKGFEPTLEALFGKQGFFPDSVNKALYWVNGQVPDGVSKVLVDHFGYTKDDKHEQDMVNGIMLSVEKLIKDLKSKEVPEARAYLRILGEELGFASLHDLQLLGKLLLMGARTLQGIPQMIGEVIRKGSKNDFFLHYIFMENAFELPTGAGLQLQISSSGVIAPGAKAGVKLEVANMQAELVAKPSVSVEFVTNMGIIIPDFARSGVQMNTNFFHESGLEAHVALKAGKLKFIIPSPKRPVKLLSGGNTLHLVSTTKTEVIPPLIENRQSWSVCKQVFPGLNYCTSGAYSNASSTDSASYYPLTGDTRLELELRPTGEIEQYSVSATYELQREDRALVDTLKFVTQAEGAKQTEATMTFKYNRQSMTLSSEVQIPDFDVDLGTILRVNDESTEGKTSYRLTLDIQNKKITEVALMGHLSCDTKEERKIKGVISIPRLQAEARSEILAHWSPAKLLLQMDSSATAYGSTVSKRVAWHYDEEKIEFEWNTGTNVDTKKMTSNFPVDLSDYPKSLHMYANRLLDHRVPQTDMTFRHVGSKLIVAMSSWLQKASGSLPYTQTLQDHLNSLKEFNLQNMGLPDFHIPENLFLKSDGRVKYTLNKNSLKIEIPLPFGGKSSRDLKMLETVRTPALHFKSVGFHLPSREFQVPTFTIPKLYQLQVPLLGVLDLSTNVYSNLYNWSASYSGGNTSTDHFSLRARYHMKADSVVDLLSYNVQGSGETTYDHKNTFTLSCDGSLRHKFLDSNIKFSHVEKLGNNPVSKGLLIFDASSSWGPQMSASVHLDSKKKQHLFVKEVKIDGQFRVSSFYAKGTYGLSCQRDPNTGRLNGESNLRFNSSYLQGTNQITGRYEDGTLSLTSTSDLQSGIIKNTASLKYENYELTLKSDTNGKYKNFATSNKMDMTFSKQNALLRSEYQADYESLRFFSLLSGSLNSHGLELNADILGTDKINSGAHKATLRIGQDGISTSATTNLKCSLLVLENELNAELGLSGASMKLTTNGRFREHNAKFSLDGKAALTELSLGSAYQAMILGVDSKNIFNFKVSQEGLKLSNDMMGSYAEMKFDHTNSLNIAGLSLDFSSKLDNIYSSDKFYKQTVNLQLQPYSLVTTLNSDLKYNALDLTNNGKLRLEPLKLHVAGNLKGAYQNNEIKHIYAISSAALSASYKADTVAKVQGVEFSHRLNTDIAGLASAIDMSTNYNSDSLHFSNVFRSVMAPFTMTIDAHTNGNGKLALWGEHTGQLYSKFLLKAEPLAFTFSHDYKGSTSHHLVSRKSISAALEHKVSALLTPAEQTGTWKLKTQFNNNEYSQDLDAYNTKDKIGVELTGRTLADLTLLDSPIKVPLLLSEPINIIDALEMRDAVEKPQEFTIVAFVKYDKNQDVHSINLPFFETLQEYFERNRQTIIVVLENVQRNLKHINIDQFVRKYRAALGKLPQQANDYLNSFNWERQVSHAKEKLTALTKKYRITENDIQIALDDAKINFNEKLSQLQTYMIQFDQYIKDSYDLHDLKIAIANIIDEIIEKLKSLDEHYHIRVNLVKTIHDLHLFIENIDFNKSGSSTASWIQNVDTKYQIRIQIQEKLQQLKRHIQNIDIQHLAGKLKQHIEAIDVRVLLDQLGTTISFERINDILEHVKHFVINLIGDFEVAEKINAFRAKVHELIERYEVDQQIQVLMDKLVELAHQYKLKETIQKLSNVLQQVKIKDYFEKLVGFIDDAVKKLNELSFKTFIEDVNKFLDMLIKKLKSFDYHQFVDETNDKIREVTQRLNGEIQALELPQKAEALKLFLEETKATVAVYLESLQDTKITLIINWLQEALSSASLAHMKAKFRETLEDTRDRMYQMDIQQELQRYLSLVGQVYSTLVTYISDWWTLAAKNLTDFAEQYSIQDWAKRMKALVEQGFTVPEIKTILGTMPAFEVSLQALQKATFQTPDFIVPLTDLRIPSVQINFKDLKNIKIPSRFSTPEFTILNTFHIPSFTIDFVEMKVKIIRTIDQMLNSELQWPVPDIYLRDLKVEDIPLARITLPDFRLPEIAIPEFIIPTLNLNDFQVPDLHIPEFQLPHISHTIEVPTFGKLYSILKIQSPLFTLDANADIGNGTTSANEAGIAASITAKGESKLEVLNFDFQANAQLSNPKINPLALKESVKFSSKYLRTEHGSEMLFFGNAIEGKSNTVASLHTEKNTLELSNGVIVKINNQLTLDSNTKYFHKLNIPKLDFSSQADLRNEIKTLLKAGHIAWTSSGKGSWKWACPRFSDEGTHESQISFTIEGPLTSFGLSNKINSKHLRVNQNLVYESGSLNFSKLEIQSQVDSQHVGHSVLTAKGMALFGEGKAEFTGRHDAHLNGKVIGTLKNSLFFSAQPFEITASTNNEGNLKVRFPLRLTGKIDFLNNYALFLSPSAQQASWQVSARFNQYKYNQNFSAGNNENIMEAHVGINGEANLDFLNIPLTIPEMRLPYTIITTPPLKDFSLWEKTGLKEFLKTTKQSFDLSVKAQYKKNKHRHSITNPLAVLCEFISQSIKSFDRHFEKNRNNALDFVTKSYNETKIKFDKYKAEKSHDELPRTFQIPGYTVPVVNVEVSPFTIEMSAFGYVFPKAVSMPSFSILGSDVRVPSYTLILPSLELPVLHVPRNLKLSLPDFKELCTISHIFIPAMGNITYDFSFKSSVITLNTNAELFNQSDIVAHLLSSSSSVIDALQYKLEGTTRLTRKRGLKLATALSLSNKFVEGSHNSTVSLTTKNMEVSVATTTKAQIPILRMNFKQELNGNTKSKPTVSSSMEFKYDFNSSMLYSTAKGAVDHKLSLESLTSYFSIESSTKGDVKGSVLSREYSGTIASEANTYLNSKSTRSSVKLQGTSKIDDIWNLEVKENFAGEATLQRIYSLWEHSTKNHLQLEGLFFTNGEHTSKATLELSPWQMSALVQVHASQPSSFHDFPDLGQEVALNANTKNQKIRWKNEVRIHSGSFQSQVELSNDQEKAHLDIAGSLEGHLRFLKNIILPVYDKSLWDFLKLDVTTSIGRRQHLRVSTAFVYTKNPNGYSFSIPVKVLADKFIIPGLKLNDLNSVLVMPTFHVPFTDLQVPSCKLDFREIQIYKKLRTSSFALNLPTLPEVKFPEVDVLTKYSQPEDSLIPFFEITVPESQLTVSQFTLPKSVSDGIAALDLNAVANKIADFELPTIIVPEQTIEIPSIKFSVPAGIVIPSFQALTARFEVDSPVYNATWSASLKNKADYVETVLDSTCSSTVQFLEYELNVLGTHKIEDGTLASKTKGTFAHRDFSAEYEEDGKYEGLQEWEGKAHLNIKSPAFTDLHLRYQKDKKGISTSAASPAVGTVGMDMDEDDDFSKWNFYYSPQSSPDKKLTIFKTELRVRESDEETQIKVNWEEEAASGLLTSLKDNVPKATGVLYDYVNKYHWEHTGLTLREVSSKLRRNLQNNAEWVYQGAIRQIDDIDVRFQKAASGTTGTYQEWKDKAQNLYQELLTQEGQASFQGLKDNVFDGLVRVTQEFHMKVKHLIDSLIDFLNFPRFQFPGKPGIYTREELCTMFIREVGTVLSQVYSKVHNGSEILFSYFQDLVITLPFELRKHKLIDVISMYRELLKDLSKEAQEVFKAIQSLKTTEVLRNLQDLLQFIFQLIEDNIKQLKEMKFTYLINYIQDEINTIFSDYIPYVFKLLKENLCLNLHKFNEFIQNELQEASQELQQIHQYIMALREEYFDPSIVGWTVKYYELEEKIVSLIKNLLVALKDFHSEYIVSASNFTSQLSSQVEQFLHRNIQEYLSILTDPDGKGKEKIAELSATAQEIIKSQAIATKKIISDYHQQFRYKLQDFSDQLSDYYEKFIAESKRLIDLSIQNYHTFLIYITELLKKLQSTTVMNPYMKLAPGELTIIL

Regarding `CC(C)CCC[C@@H](C)[C@H]1CCC2C(CC=O)C([C@@]3(C)CC[C@H](O)CC3=O)CC[C@@]21C` (stereo partly drawn) [4a, 3β-Hydroxy-5-oxo-5,6-secocholestan-6-al], the IC50 in data set [1] (HAEC, LDH release, 0-100 μM, read-out: IC50) was found to be 24.6 ± 3.2 µM. The “lipid-loading of macrophages / foam cell formation” value in data set [2] is listed as “began lipid-loading”. In data set [3], the “random coil of LDL” value is about 39±2%. Besides, the “α helical structure of LDL” value in data set [3] was about 23±5%. Besides, the “uptake and localization in macrophages” value in data set [4] is recorded as “efficiently taken up by macrophages”. Further, in data set [5], the “adhesion of U-937 monocytes to endothelial cell monolayers, above that of LDL alone” value is “no significant increase in equilibrium binding of monocytes to endothelial cells”. Further, the “conversion of 4a into 5a” value in data set [6] (extracts from atheromatous arteries, 22 h) is on record as “complete conversion”; in data set [6] (plasma, 15 h), “complete conversion”; in data set [6] (serum, 15 h), “complete conversion”; in data set [6] (whole blood, 15 h), “complete conversion”. Also, in data set [6] (lyophilized PBS), the “aldolization of 4a” value is “no aldolization”.
In the case of `CC(C)CCC[C@@H](C)[C@H]1CCC2C3C(CC[C@@]21C)[C@@]1(C)CC[C@H](O)C[C@@]1(O)[C@@H]3C=O` (stereo partly drawn) [5a, 3β-Hydroxy-5β-hydroxy-B-norcholestane-6β-carboxaldehyde], the IC50 in data set [7] stood at 12.6 ± 1.9 µM. In data set [1], this molecule returned an IC50 of 18.2 ± 1.9 µM. For the same molecule, the “lipid-loading of macrophages / foam cell formation” value in data set [2] was “began lipid-loading”. Also, in data set [3], the “random coil of LDL” value is reported as 32±4% and the “α helical structure of LDL” value is listed as about 20±2%. In addition, in data set [4], the “uptake and localization in macrophages” value was “efficiently taken up by macrophages”. For the same molecule, the “adhesion of U-937 monocytes to endothelial cell monolayers, above that of LDL alone” value in data set [5] was “no significant increase in equilibrium binding of monocytes to endothelial cells”.
